Results published in patent US20230121547A1, “A COMBINATION THERAPY WITH NIROGACESTAT AND A BCMA-DIRECTED THERAPY AND USES THEREOF” (SpringWorks Therapeutics Inc., priority 2020, published 2023).

Test: physchem
Settings: organic solvent or mixture, thermodynamic from solid
Method: Weighed samples of material were treated with aliquots of specified solvents at ambient temperature. Samples were typically sonicated between additions to facilitate dissolution. Complete dissolution was observed through visual inspection. Solubility was calculated based on the total amount of solvent added to achieve complete dissolution and may be greater than the value reported due to incremental solvent addition and the inherent kinetics of dissolution. If dissolution was not observed, values are reported as “less than”. If dissolution was observed upon the first addition of solvent, values are reported as “greater than”.

Br.Br.CCC[C@H](N[C@H]1CCc2cc(F)cc(F)c2C1)C(=O)Nc1cn(C(C)(C)CNCC(C)(C)C)cn1 [nirogacestat dihydrobromide, (S)-2-(((S)-6,8-difluoro-1,2,3,4-tetrahydronaphthalen-2-yl)amino)-N-(1-(2-methyl-1-(neopentylamino)propan-2-yl)-1H-imidazol-4-yl)pentanamide] showed a solubility of less than 1000 µg/mL.
